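Grown in 96-well plates, cells were treated for 48 hours with each compound at five concentrations. Insufficient inhibition: endpoint recorded as highest concentration tested. At the GI50, growth is halved. Definition used: TGI = concentration required for complete inhibition of growth.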 Where a SMILES comes first, the peptide text is derived from it. [ ]: non-standard residue; d: D form. The star is where a group is joined. Octanoyl = CCCCCCCC(=O)*; Aib = CC(C)(N)C(=O)O; tBu = CC(C)(C)*
Assays:
Experiment in all cases: inhibition of tumour cell growth, NCI panel, 48 h
SF-539 CNS = tested on: SF-539 CNS
CCRF-CEM leukemia = tested on: CCRF-CEM leukemia
786-0 renal = tested on: 786-0 renal
HL-60(TB) leukemia = tested on: HL-60(TB) leukemia
OVCAR-5 ovarian = tested on: OVCAR-5 ovarian
UO-31 renal = tested on: UO-31 renal
EKVX NSCLC = tested on: EKVX NSCLC
NCI-H23 lung = tested on: NCI-H23 lung
SN12C renal = tested on: SN12C renal
DU-145 prostate = tested on: DU-145 prostate
SK-MEL-5 melanoma = tested on: SK-MEL-5 melanoma

Row | SMILES | TGI (SF-539 CNS) [µM] | TGI (CCRF-CEM leukemia) [µM] | TGI (786-0 renal) [µM] | TGI (HL-60(TB) leukemia) [µM] | TGI (OVCAR-5 ovarian) [µM] | TGI (UO-31 renal) [µM] | TGI (EKVX NSCLC) [µM] | TGI (NCI-H23 lung) [µM] | TGI (SN12C renal) [µM] | TGI (DU-145 prostate) [µM] | TGI (SK-MEL-5 melanoma) [µM] | GI50 (CCRF-CEM leukemia) [µM] | GI50 (HL-60(TB) leukemia) [µM] | GI50 (NCI-H23 lung) [mM]
1 | CC(=O)Oc1ccccc1C(=O)O | > 100 | > 100 | > 100 | > 100 | > 100 | > 100 | > 100 | > 100 | > 100 | > 100 | > 100 | – | – | –
2 | CCOC(=O)CCC(NC(=O)Cc1ccc(Oc2nc3ccccc3nc2-c2cccs2)cc1)C(=O)OCC (stereo not drawn) | 26.3 | > 100 | 15.3 | > 100 | > 100 | 72.7 | > 100 | > 100 | > 100 | > 100 | > 100 | – | – | –
3 | CCO[C@]12C[C@H](OC)[C@@]3(O)CC(C1[C@H]3O)C13C4C2[C@H](OC)C1[C@](COC)(CN4CC)[C@H](O)C[C@@H]3OC (stereo partly drawn) | > 100 | > 100 | – | > 100 | > 100 | > 100 | > 100 | > 100 | > 100 | – | > 100 | – | – | –
4 | NS(=O)(=O)c1ccc(CNc2nc(-c3cccs3)nc3ccc(I)cc23)cc1 | 30.8 | 59.7 | 37.6 | > 100 | 44.4 | 4.45 | 29.3 | 38.4 | 57.7 | 30.3 | 27 | 21.8 | 29.9 | –
5 | COc1ccc(N2C(=O)C3c4[nH]c5cccc(C)c5c4C4CCC(C(C)(C)C)CC4C3C2=O)cc1 (stereo not drawn) | > 10 | – | – | > 10 | > 10 | > 10 | > 10 | > 10 | > 10 | > 10 | > 10 | – | – | –
6 | CC#C[I+]c1ccccc1 | 35.1 | 18.7 | 28.4 | 33.8 | 77.8 | 97.5 | 36.7 | 39.7 | 25.6 | – | 48.5 | – | – | –
7 | O=[N+]([O-])c1cc(-[n+]2cc([O-])on2)ccc1F | – | 38.6 | 24 | 49 | 31.2 | 13.1 | 34.8 | 33.5 | 31.2 | 25.4 | 28.4 | – | – | –
8 | O=[N+]([O-])O.[Ga] | > 10000 | 3190 | > 10000 | 1780 | 5070 | > 7740 | 5620 | > 10000 | 6890 | > 10000 | 1310 | – | – | 1.26
9 | CCCCCCCC(=O)NC(C)(C)C(=O)NC(COC(C)(C)C)C(=O)NC(CC(C)C)C(=O)NC(C)(C)C(=O)NC(COC(C)(C)C)C(=O)NC(COC(C)(C)C)C(=O)NC(CC(C)C)C(=O)NC(C)(C)C(=O)NC(COC(C)(C)C)C(=O)NC(C(=O)NC(CC(C)C)C(=O)OC)C(C)CC (stereo not drawn) (Octanoyl-[Aib]S(tBu)L[Aib]S(tBu)S(tBu)L[Aib]S(tBu)IL-OMe; configuration not given here) | > 25 | 11.9 | 23.4 | 15.6 | 22.3 | > 25 | 16.3 | 12.7 | 24.9 | > 25 | 16.2 | – | – | –
10 | CCCCN1C(=O)NC(Cc2ccccc2)C1=O (stereo not drawn) | > 100 | – | – | – | > 100 | > 100 | > 100 | > 100 | > 100 | – | – | – | – | –
11 | Cn1c(-c2ccc(/C=N\N3CCN(/N=C/c4ccc(-c5c[n+]6ccsc6n5C)cc4)CC3)cc2)c[n+]2ccsc12 | > 100 | > 100 | > 100 | 48.3 | > 100 | > 100 | > 100 | > 100 | > 100 | > 100 | 84.6 | – | – | –

Source: PubChem BioAssay (NCI)
